The target in one assay is YES1 kinase (Homo sapiens, UniProt P07947). In words: YES1 kinase inhibition, ADP Glo assay (Promega). It is filed as biochemical. The note with it: for IC50: class symbols, read-out: YES1 enzyme, IC50. The procedure:
To evaluate the inhibitory activity against YES1 kinase of the compound according to the present invention, ADP Glo assay (Promega) was used, and the following method was performed with reference to the Promega kinase enzyme system protocol. To proceed with the experiment, buffers A-F and compound dilution plates were required.
To prepare A.4X reaction buffer, 800 μl of 5X reaction buffer and 200 μl of distilled water were used. To prepare B.4X kinase buffer, 996.6 μl of A.4X reaction buffer, 2 μl of 0.1M DTT, and 3.2 μl of 2.5M MnCl2 were added and mixed. To prepare C.1X kinase buffer (containing 5% DMSO) used for compound dilution, 250 μl of B.4X kinase buffer, 700 μl of distilled water, and 50 μl of DMSO were added, so that the final DMSO concentration became 5%. Then, 10 mM compounds were diluted 100-fold to prepare 100 μM solutions, and then D.5X inhibitor solution was prepared so that the compound concentration became 5 uM. Using a 96-well plate, 5 μM compounds were 3-fold diluted using C.1X kinase buffer (containing 5% DMSO) to prepare compound plates with concentrations ranging from 0.25 μM to 5 μM. The resulting plates were stored at room temperature. To prepare E. 2.5X ATP/substrate mixture, 50 μl of B.4X kinase buffer, 50 μl of […], and 100 μl of substrate were mixed. To prepare F YES1 kinase enzyme solution, 35 μl of B.4X kinase buffer, 0.4 μl of YES1 enzyme, and 104.6 μl of distilled water were used. Once the diluted compound plates, ATP/substrate mixture, and YES1 kinase solution were all prepared, 3 μL each was transferred from the diluted compound plate to a luciferase 96-well white plate (Since the total volume of the ATP/substrate and YES1 kinase solution that reacts with the compound is 15 μL, the compounds were diluted 5-fold, making the final compound concentration 0.05 μM-1 μM). Then, 6 μL of F. YES1 Kinase Enzyme Solution was transferred to each well, pipetted 10 times to mix, and incubated at room temperature in a shaker for 10 minutes. Next, 6 μL of E. 2.5X ATP/Substrate Mixture was transferred to each well, pipetted 10 times to mix, and centrifuged at 12,000 rpm for 5 minutes. The plate was then incubated in a shaker at room temperature for 40 minutes. After that, 15 μL of ADP-Glo Reagent, dissolved at room temperature, was added to each well, pipetted 10 times, and incubated in a shaker at room temperature for 40 minutes. Finally, 30 μL of Kinase Detection Reagent, dissolved at room temperature, was added, pipetted 10 times, incubated in a shaker at room temperature for 30 minutes. Luminescence was measured using a luminescence plate reader. Then, the background value was subtracted from all measured values, and the YES1 kinase activity at compound concentrations of 1 nM, 10 nM, and 100 nM was calculated. The measured values were calculated as percentages using the average value of the negative control. Graphs were drawn using GraphPad Prism, and the enzyme activity was calculated as a percentage of YES1 kinase inhibition at compound concentrations of 1 nM, 10 nM, and 100 nM. IC50 values were obtained using Microsoft Excel.

For assay [1], the system named is KYSE-70 esophageal cancer cell line. As to the kind of experiment: Cell growth inhibition of KYSE-70 (Sulforhodamine B). As to conditions: Homo sapiens; KYSE-70, 72 hours; read-out: KYSE70 GI50. It is filed as cell-based. The method, then: The cell line according to the present invention was selected as KYSE-70, an esophageal cancer cell line in which YES1 is amplified. The evaluation of cell growth inhibition was performed as follows.
KYSE-70 was cultured in RPMI-1640 (Capricorn) supplemented with 10% FBS (Cellgro). The cells were seeded 24 hours prior to compound treatment, into three 96-well F-bottom clear plates (Greiner), with 7,500 cells per well in 180 μL of medium. The 10 mM compound was diluted 100-fold in medium to prepare a 100 μM compound, which was then placed into a 96-well plate and further 3-fold diluted in medium to prepare a compound plate with concentrations ranging from 0.046 μM to 100 μM. 20 μL of each compound from the drug plate was added to the cell-seeded plates to achieve final concentrations of 0.0046 μM to 10 μM. At the same time, 50 μL of 33% trichloroacetic acid was injected into one plate and the plate was fixed by incubating at 4° C. This was referred to as the Do plate. Viable cells were measured 72 hours after compound treatment by injecting 50 μL of 33% trichloroacetic acid and incubating at 4° C. for more than 1 hour to fix the cells. This was referred to as the D3 plate. After the Do plate and D3 plates were washed 5 times with sterile water, 100 μL of 0.04% Sulforhodamine B solution in 1% acetic acid was added and reacted for 1 hour to stain the cells. After staining, the plates were washed 4 times with 1% acetic acid solution and completely dried. Then, the Sulforhodamine B bound to cellular proteins was completely dissolved with 10 mM Tris base solution (pH 10.5). The absorbance was measured at a wavelength of 510 nm using a microplate reader (TECAN, sunrise microplate reader). The analysis was performed using GraphPad Prism. The average absorbance of the Do plate was set to 0%, and the average absorbance of the negative control of the D3 plate was set to 100%, from which a graph was drawn and the GI50 values were calculated. Each test was performed twice.

A value given as a limit tells only on which side of the number the result lay.

One may read the inhibition as the relative decrease from the control value, in per cent. As usually defined, the GI50 is the concentration that inhibits growth by half. For orientation: IC50 means the concentration needed to halve the response being measured.

YES1 kinase, sequence (P07947 whole entry): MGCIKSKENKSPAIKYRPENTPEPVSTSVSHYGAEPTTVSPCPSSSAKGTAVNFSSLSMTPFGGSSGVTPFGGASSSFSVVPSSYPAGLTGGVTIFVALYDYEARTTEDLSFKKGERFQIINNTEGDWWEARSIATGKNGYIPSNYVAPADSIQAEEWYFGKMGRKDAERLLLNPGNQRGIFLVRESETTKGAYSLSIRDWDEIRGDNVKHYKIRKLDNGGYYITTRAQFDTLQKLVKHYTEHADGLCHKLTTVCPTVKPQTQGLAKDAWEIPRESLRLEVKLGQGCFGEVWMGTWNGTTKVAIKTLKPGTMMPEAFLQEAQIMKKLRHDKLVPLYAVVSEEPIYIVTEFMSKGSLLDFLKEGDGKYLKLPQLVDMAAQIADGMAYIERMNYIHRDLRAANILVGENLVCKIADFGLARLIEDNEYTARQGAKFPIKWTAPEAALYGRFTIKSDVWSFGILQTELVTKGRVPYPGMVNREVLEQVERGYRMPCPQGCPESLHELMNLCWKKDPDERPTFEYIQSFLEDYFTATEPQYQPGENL

Consider `COc1cc(-c2cc(N[C@H]3CC[C@H](N)C3)n3ncnc(N)c23)ccc1NC(=O)OC(C)(C)C` [Example 116, tert-butyl (4-(4-amino-7-(((1S,3S)-3-aminocyclopentyl)amino)pyrrolo[2,1-f][1,2,4]triazin-5-yl)-2-methoxyphenyl)carbamate], for which, at YES1 kinase (compound 1 nM), the “YES1 kinase inhibition at 1 nM (in words)” value is “could be inhibited even at a low concentration of 1 nM”. Also, at YES1 kinase (compound 1 nM, read-out: YES1 enzyme, % inhibition, 1 nM), the inhibition at 0.001 µM stood at 30%. In addition, the inhibition at 0.01 µM on YES1 kinase (compound 10 nM, read-out: YES1 enzyme, % inhibition, 10 nM) stood at 63%. Also, the GI50 in assay [1] lay within 100 to 1000 nM.

Consider `CNC1(C)CCN(c2cc(-c3ccc(NC(=O)OC(C)(C)C)c(OC)c3)c3c(N)ncnn23)CC1` [Example 105, tert-butyl (4-(4-amino-7-(4-methyl-4-(methylamino)piperidin-1-yl)pyrrolo[2,1-f][1,2,4]triazin-5-yl)-2-methoxyphenyl)carbamate], for which, at YES1 kinase, the IC50 is at most 100 nM. Besides, in assay [1], the GI50 is at most 100 nM.

For `COc1cc(-c2cc(N3CCC(N)CC3)n3ncnc(N)c23)ccc1NC(=O)c1ccoc1` [Example 138, N-(4-(4-amino-7-(4-aminopiperidin-1-yl)pyrrolo[2,1-f][1,2,4]triazin-5-yl)-2-methoxyphenyl)furan-3-carboxamide], at YES1 kinase, the IC50 is at most 100 nM. For the same compound, in assay [1], the GI50 was above 10000 nM.

For the compound `COc1cc(-c2cc(N3CCC(C(C)N)CC3)n3ncnc(N)c23)ccc1NC(=O)OC(C)(C)C` (centres unmarked) [Example 81, tert-butyl (4-(4-amino-7-(4-(1-aminoethyl)piperidin-1-yl)pyrrolo[2,1-f][1,2,4]triazin-5-yl)-2-methoxyphenyl)carbamate], the GI50 in assay [1] lay in the range of 100 to 1000 nM.

As for `CNCCC1CCN(c2c(C)c(-c3ccc(NC(=O)OC(C)(C)CF)c(OC)c3)c3c(N)ncnn23)CC1` [Example 63, 1-fluoro-2-methylpropan-2-yl (4-(4-amino-6-methyl-7-(4-(2-(methylamino)ethyl)piperidin-1-yl)pyrrolo[2,1-f][1,2,4]triazin-5-yl)-2-methoxyphenyl)carbamate], the GI50 in assay [1] was at most 100 nM.

For `CNC1CCN(c2c(C)c(-c3ccc(NC(=O)OC(C)(C)C)c(OC)c3)c3c(N)ncnn23)CC1` [Example 75, tert-butyl (4-(4-amino-6-methyl-7-(4-(methylamino)piperidin-1-yl)pyrrolo[2,1-f][1,2,4]triazin-5-yl)-2-methoxyphenyl)carbamate], in assay [1], the GI50 was at most 100 nM.

`CNC(=O)C1CCN(c2cc(-c3ccc(NC(=O)OC(C)(C)C)c(OC)c3)c3c(N)ncnn23)CC1` [Example 95, tert-butyl (4-(4-amino-7-(4-(methylcarbamoyl)piperidin-1-yl)pyrrolo[2,1-f][1,2,4]triazin-5-yl)-2-methoxyphenyl)carbamate]: the GI50 in assay [1] was in the range of 100 to 1000 nM.

Take `CNC1CCN(CCc2c(F)c(-c3ccc(NC(=O)OC(C)(C)C)c(OC)c3)c3c(N)ncnn23)CC1` [Example 130, tert-butyl (4-(4-amino-6-fluoro-7-(2-(4-(methylamino)piperidin-1-yl)ethyl)pyrrolo[2,1-f][1,2,4]triazin-5-yl)-2-methoxyphenyl)carbamate]: the GI50 in assay [1] is at most 100 nM.

For `COc1cc(-c2c(C)c(N3CCC(N(C)C)CC3)n3ncnc(N)c23)ccc1NC(=O)OC(C)(C)CF` [Example 62, 1-fluoro-2-methylpropan-2-yl (4-(4-amino-7-(4-(dimethylamino)piperidin-1-yl)-6-methylpyrrolo[2,1-f][1,2,4]triazin-5-yl)-2-methoxyphenyl)carbamate], the GI50 in assay [1] was at most 100 nM.

With `CC(C)(C)OC(=O)Nc1ccc(-c2cc(N3CCC(N)CC3)n3ncnc(N)c23)c2c1OCO2` [Example 73, tert-butyl (7-(4-amino-7-(4-aminopiperidin-1-yl)pyrrolo[2,1-f][1,2,4]triazin-5-yl)benzo[d][1,3]dioxol-4-yl)carbamate], the GI50 in assay [1] is at most 100 nM.

Regarding `CNCCC1CCN(c2cc(-c3ccc(NC(=O)OC(C)(C)CF)c(OC)c3)c3c(N)ncnn23)CC1` [Example 66, 1-fluoro-2-methylpropan-2-yl (4-(4-amino-7-(4-(2-(methylamino)ethyl)piperidin-1-yl)pyrrolo[2,1-f][1,2,4]triazin-5-yl)-2-methoxyphenyl)carbamate], the GI50 in assay [1] is at most 100 nM.

Take `CC1(OC(=O)Nc2ccc(-c3cc(N4CCC(N)CC4)n4ncnc(N)c34)c3c2OCO3)CC1` [Example 70, 1-methylcyclopropyl (7-(4-amino-7-(4-aminopiperidin-1-yl)pyrrolo[2,1-f][1,2,4]triazin-5-yl)benzo[d][1,3]dioxol-4-yl)carbamate]: in assay [1], the GI50 was 100 to 1000 nM.

Turning to `COc1cc(-c2cc(N3CCC(N)CC3)n3ncnc(N)c23)ccc1NC(=O)OC(C)(C)C(F)(F)F` [Example 72, 1,1,1-trifluoro-2-methylpropan-2-yl (4-(4-amino-7-(4-aminopiperidin-1-yl)pyrrolo[2,1-f][1,2,4]triazin-5-yl)-2-methoxyphenyl)carbamate], the GI50 in assay [1] lay within 100 to 1000 nM.

With `COc1cc(-c2c(Cl)c(N3CCC(N(C)C)CC3)n3ncnc(N)c23)ccc1NC(=O)OC(C)(C)C` [Example 124, tert-butyl (4-(4-amino-6-chloro-7-(4-(dimethylamino)piperidin-1-yl)pyrrolo[2,1-f][1,2,4]triazin-5-yl)-2-methoxyphenyl)carbamate], the GI50 in assay [1] is at most 100 nM.

Turning to `COc1cc(-c2cc(CCN3CCC(N)CC3)n3ncnc(N)c23)ccc1NC(=O)OC(C)(C)CF` [Example 68, 1-fluoro-2-methylpropan-2-yl (4-(4-amino-7-(2-(4-aminopiperidin-1-yl)ethyl)pyrrolo[2,1-f][1,2,4]triazin-5-yl)-2-methoxyphenyl)carbamate], the GI50 in assay [1] is at most 100 nM.

Take `CNC1CCN(c2c(C)c(-c3ccc(NC(=O)OC(C)(C)CF)c(OC)c3)c3c(N)ncnn23)CC1` [Example 61, 1-fluoro-2-methylpropan-2-yl (4-(4-amino-6-methyl-7-(4-(methylamino)piperidin-1-yl)pyrrolo[2,1-f][1,2,4]triazin-5-yl)-2-methoxyphenyl)carbamate]: in assay [1], the GI50 is at most 100 nM.

Turning to `CNC1CCN(CCc2c(C)c(-c3ccc(NC(=O)OC(C)(C)CF)c(OC)c3)c3c(N)ncnn23)CC1` [Example 64, 1-fluoro-2-methylpropan-2-yl (4-(4-amino-6-methyl-7-(2-(4-(methylamino)piperidin-1-yl)ethyl)pyrrolo[2,1-f][1,2,4]triazin-5-yl)-2-methoxyphenyl)carbamate], the GI50 in assay [1] was at most 100 nM.

Turning to `CCC1(N)CCN(c2cc(-c3ccc(NC(=O)OC(C)(C)C)c(OC)c3)c3c(N)ncnn23)CC1` [Example 82, tert-butyl (4-(4-amino-7-(4-amino-4-ethylpiperidin-1-yl)pyrrolo[2,1-f][1,2,4]triazin-5-yl)-2-methoxyphenyl)carbamate], the GI50 in assay [1] is at most 100 nM.

The record behind these values is patent US20260297095A1, “NOVEL PYRROLOTRIAZINE DERIVATIVE AND USE THEREOF” (Pelemed Co., Ltd., priority 2024, published 2026).
